The values below come from patent publication US5863950A, “HIV protease inhibitors” (Agouron Pharmaceuticals, Inc., priority 1994, dated 1999).

“And” between values parts separate entries of the source, which are not always exact repeats. Identical values can stand only once.

One test concerns the target T1, HIV-1 protease (Human immunodeficiency virus type 1 group M subtype B, UniProt P04585).
T1 construct: purified HIV-1 protease
Kind of test: biochemical. In kind it is biochemical.
Details: not given
As for the experimental part: 1. Proteolytic activity of purified HIV-1 protease was routinely measured using the chromogenic assay developed by Richards et al. (J. Biol. Chem. 265: 7733 (1990)). Synthetic peptide His-Lys-Ala-Arg-Val-Leu-Phe (pNO2)-Glu-Ala-Nle-Ser-NH2 (American Peptide Company) was used as the substrate.
2. The assay was carried out in 0.5M NaCl, 50 mM MES pH 5.6, 2% DMSO (dimethylsulfoxide) at 37° C. Cleavage of the scissile bond between leucine and paranitro-phenylalanine (Phe(pNO2)) was assayed by spectrophotometric monitoring of the decrease in absorbance at 305 nm. Initial velocity was determined as the rate of decline of absorbance during the first 100 seconds of reaction.
3. […] Between 15-25 concentrations of inhibitor were added and velocity of reaction was measured at each of the concentrations, as described above.
4. Inhibition constants were calculated using the method of Jackson et al. (Adv. in Enzyme Regulation 22: 187 (1984)).
A word on the IC50: it is the midpoint of a concentration-inhibition curve. Lower therefore signals inhibition by little substance. The Ki is a dissociation constant, usually derived from enzyme kinetics or from competition with a known ligand. Read a high Ki as lower affinity. As to `CC(C)(C)NC(=O)c1c(CCC(O)Cc2ccc3ccccc3c2C(=O)NC(C)(C)C)ccc2ccccc12` (single isomer, unassigned) [Example 49], 0.88 µM corresponded to half-maximal inhibition (IC50) and the affinity corresponds to a Ki of 0.48 µM.

Staying with this test, now noted: 0.5M NaCl, 50 mM MES pH 5.6, 2% DMSO, 37° C., 200 μM substrate.
In turn, `CC(C)(C)NC(=O)[C@@H]1C[C@@H]2CCCC[C@@H]2CN1CC(O)CCc1ccccc1C(=O)N(CCO)C(C)(C)C` (single isomer, unassigned) [Example 29] gave an IC50 of 55 µM.
Still for that read-out and setting: the result for `CC(C)(C)NC(=O)[C@@H]1C[C@@H]2CCCC[C@@H]2CN1CC(O)CCc1ccccc1C(=O)N(CCO)C(C)(C)C` (single isomer, unassigned) [Example 30] reads 38 µM.
Turning to `CC(C)(C)NC(=O)c1c(CC(O)CCc2ccccc2C(=O)N(CCO)C(C)(C)C)ccc2ccccc12` (stereo not shown) [Example 3], half-maximal inhibition (IC50) required 2.38 µM and the Ki was 1.31 µM.
As for `Cc1ccc(CCC(O)Cc2ccccc2C(=O)N(CCO)C2(C)CCCC2)c(C(=O)N(CCO)C(C)(C)C)c1` (stereo not shown) [Example 4], the IC50 is 0.72 µM and the affinity corresponds to a Ki of 0.42 µM.
`CC(C)(C)N(CCO)C(=O)c1c(CCC(O)Cc2ccc3ccccc3c2C(=O)N(CCO)C(C)(C)C)ccc2ccccc12` (stereo not shown) [Example 6] displayed an IC50 of 30 µM.
Molecule `CC(C)(C)NC(=O)c1cc(C(C)(C)C)ccc1CCC(O)Cc1ccc2ccccc2c1C(=O)NC(C)(C)C` (stereo not shown) [Example 7] showed an IC50 of 1.02 µM and a Ki of 1.01 µM.
`CC(C)(C)NC(=O)c1cc(C(C)(C)C)ccc1CC[C@@H](O)Cc1ccc2ccccc2c1C(=O)NC(C)(C)C` [Example 8] registered a half-inhibitory concentration (IC50) of approximately 20 µM.
On the same count and under the same terms, as for `CC(C)(C)NC(=O)c1cc(C(C)(C)C)ccc1CCC(O)Cc1ccc(C(C)(C)C)cc1C(=O)NC(C)(C)C` (stereo not shown) [Example 10], the figure is 15 µM; as for `CC(C)(C)NC(=O)c1cnccc1CC(O)CCc1ccc2ccccc2c1C(=O)NC(C)(C)C` (stereo not shown) [Example 11], 18 µM.
`CC(C)(C)NC(=O)c1c(CCC(O)Cc2ccc3ccccc3c2C(=O)N(CCO)C(C)(C)C)ccc2ccccc12` (stereo not shown) [Example 14] came in with an IC50 of 5.6 µM and a Ki of 5.4 µM.
In turn, `CC(C)(C)NC(=O)c1ccccc1SCC(O)c1ccccc1C(=O)NC(C)(C)C` (stereo not shown) [Example 17] came in with an IC50 of more than 200 µM.
The same measure, in the same setting: as for `CC(C)(C)NC(=O)c1ccccc1SCC(O)CN1CCCCC1C(=O)NC(C)(C)C` (stereo not shown) [Example 22], the figure is 60 µM; as for `CC(C)(C)NC(=O)c1ccccc1CC(O)CSc1ccccc1C(=O)NC(C)(C)C` (stereo not shown) [Example 23], 75 to 100 µM; as for `CC(C)(C)NC(=O)c1ccccc1CCC(O)Cc1ccccc1C(=O)NC(C)(C)C` (stereo not shown) [Example 25], 18 µM.
For the molecule `CC(C)(C)NC(=O)c1ccccc1C#CC(O)Cc1ccccc1C(=O)NC(C)(C)C` (stereo not shown) [Example 26], the concentration for half-maximal inhibition (IC50) was more than 200 µM.
`CC(C)(C)NC(=O)c1c(CCC(O)CCc2ccc3ccccc3c2C(=O)NC(C)(C)C)ccc2ccccc12` [Example 32] yielded an IC50 of 7 µM.
Turning to `CC(C)(C)N(CCO)C(=O)c1ccccc1CCC(O)CCc1ccccc1C(=O)N(CCO)C(C)(C)C` [Example 33], the concentration for half-maximal inhibition (IC50) turned out to be 6 µM.
In turn, `CC(C)(C)NC(=O)c1cc(C(C)(C)C)ccc1CCC(O)Cc1ccccc1C(=O)N(CCO)C(C)(C)C` (stereo not shown) [Example 35] displayed an IC50 of 1.19 µM and a Ki of 0.84 µM.
`CC(C)(C)NC(=O)c1ccccc1SCC(O)Cc1ccccc1C(=O)N(CCO)C(C)(C)C` (stereo not shown) [Example 36]: inhibition was half-maximal at 25 µM (IC50).
`CN(C)CCNC(=O)c1ccccc1CC(O)CSc1ccccc1C(=O)NCCN(C)C` (stereo not shown) [Example 37] displayed an IC50 of more than 500 µM.
Same read-out and setting: as for `CCNC(=O)c1ccccc1CC(O)CSc1ccccc1C(=O)NCCN(C)C` (stereo not shown) [Example 38], the figure is more than 500 µM; as for `CN(C)CCNC(=O)c1ccccc1SCC(O)Cc1ccccc1C(=O)NC(C)(C)C` (stereo not shown) [Example 39], more than 500 µM; as for `CN(C)CC(C)(C)CNC(=O)c1ccccc1SCC(O)Cc1ccccc1C(=O)NC(C)(C)C` (stereo not shown) [Example 40], more than 500 µM.
`COC(CSc1ccccc1C(=O)NC(C)(C)C)Cc1ccccc1C(=O)NC(C)(C)C` (stereo not shown) [Example 41] returned an IC50 of more than 500 µM.
On the same count and under the same terms, the result for `CC(C)(C)NC(=O)c1ccccc1CC(O)CSc1ccccc1C(=O)N1CCOCC1` (stereo not shown) [Example 42] reads 150 to 200 µM; that for `CC(C)(C)NC(=O)c1ccccc1CC(O)CSc1ccc(NC(=O)c2ccncc2)cc1C(=O)NC(C)(C)C` (stereo not shown) [Example 45], 60 µM; that for `CC(C)(C)NC(=O)c1ccccc1CC(O)CSc1ccc(NCc2ccncc2)cc1C(=O)NC(C)(C)C` (stereo not shown) [Example 46], 200 µM.
The same measure, in the same setting: as for `CC(C)(C)NC(=O)c1ccccc1CC(O)CSc1ccc2ccccc2c1C(=O)NC(C)(C)C` (stereo not shown) [Example 47], the figure is 50 µM; as for `CC(C)N1CCC(CC(O)CCc2ccc3ccccc3c2C(=O)NC(C)(C)C)=C(C(=O)NC(C)(C)C)C1` (stereo not shown) [Example 48], 70 µM; as for `CC(C)(C)NC(=O)c1ccccc1NCC(O)Cc1ccc2ccccc2c1C(=O)NC(C)(C)C` (stereo not shown) [Example 50], 120 µM.
Still for that read-out and setting: the result for `CC(C)(C)NC(=O)c1ccccc1NCC(O)Cc1ccc2ccccc2c1C(=O)NC(C)(C)C` (stereo not shown) [Example 51] reads 120 µM; that for `CC(C)(C)NC(=O)c1ccccc1SCC(O)Cc1ccc2ccccc2c1C(=O)NC(C)(C)C` (stereo not shown) [Example 52], 25 µM.
As for `CN(C(=O)c1ccccc1CCC(O)Cc1ccccc1C(=O)N(C)C(C)(C)C)C(C)(C)C` (stereo not shown) [Example 55], half-maximal inhibition (IC50) required 6.3 µM.
On to `CC(C)(C)NC(=O)c1ccccc1CC(O)C(O)Cc1ccccc1C(=O)NC(C)(C)C` (stereo not shown) [Example 56], for which inhibition was half-maximal at 64 µM (IC50) and the affinity corresponds to a Ki of 56 µM.
In the same order, the values of `CC(C)(C)N(CCO)C(=O)c1ccccc1CC(O)C(O)Cc1ccccc1C(=O)N(CCO)C(C)(C)C` (stereo not shown) [Example 58] are 9.6 µM and 7.7 µM.
`CC(C)(C)NC(=O)c1cc2ccccc2cc1CCC(O)Cc1ccccc1C(=O)N(CCO)C(C)(C)C` (stereo not shown) [Example 60] yielded an IC50 of 4.1 µM and a Ki of 2.7 µM.
Taken in the same sequence, the figures for `CC(C)(C)N(CCO)C(=O)c1ccccc1CCC(O)Cc1ccccc1C(=O)N(CCO)C(C)(C)Cc1ccccc1` (stereo not shown) [Example 61] were 1.33 µM and 1.27 µM.
In the same order, the values of `CC(C)(C)N(CCO)C(=O)c1ccccc1CCC(O)Cc1ccccc1C(=O)N(Cc1ccccc1)C(C)(C)C` (stereo not shown) [Example 64] are 8.3 µM and 7.9 µM.
Taken in the same sequence, the figures for `CC(C)(C)N(CCO)C(=O)c1ccccc1CCC(O)Cc1ccccc1C(=O)N(c1ccccc1)C(C)(C)C` (stereo not shown) [Example 68] were 11.9 µM and 5.8 µM.
`CC(C)(C)N(CCO)C(=O)c1ccccc1CCC(=O)C(F)c1ccccc1C(=O)N(CCO)C(C)(C)c1ccccc1` (stereo not shown) [Example 70] showed an IC50 of 9 µM.
As to `CC(C)(C)N(CCO)C(=O)c1ccccc1CCC(O)C(F)c1ccccc1C(=O)N(CCO)C(C)(C)c1ccccc1` (stereo not shown) [Example 71], the IC50 was found to be 1.3 µM and the Ki came out at 0.879 µM.

Staying with this test, now noted: at 10 (μM).
In the case of `CC(C)(C)NC(=O)c1ccccc1CCC(O)Cc1ccccc1C(=O)N(Cc1ccccc1)C(C)(C)C` (stereo not shown) [Example 13], the “percent (inhibition)” value turned out to be 40%.
Same read-out and setting: the result for `CC(C)(C)NC(=O)c1c(CCC(O)Cc2ccccc2C(=O)N(Cc2nc3ccccc3[nH]2)C(C)(C)C)ccc2ccccc12` (stereo not shown) [Example 67] reads 40%.
On the same count and under the same terms, the result for `CC(C)(C)NC(=O)c1c(CCC(O)Cc2ccccc2C(=O)N(c2ccccc2)C(C)(C)C)ccc2ccccc12` (stereo not shown) [Example 69] reads 40%.

Staying with this test, now noted: at 20 (μM).
On to `CC(C)(C)NC(=O)c1cc2ccccc2cc1CCC(O)Cc1ccc2ccccc2c1C(=O)NC(C)(C)C` (stereo not shown) [Example 9], for which the “percent (inhibition)” value came out at 40%.

Staying with this test, now noted: at 50 (μM).
Regarding `CC(C)(C)NC(=O)c1c(CCC(O)Cc2ccccc2-c2nccc3ccccc23)ccc2ccccc12` (stereo not shown) [Example 16], the “percent (inhibition)” value came to 20%.

Staying with this test, now noted: at 100 (μM).
For `CC(C)(C)NC(=O)c1ccccc1CCC(O)CN1CCCCC1C(=O)NC(C)(C)C` (stereo not shown) [Example 31], the “percent (inhibition)” value is 20% and 35%.
As for `CC(O)(CCc1ccccc1C(=O)NC(C)(C)C)Cc1ccccc1C(=O)NC(C)(C)C` (stereo not shown) [Example 34], the “percent (inhibition)” value worked out at 40%.
Still for that read-out and setting: as for `CN(C(=O)c1c(CC(O)CCc2ccc3ccccc3c2C(=O)NC(C)(C)C)ccc2c1CNCC2)C(C)(C)C` (stereo not shown) [Example 59], the figure is 20%.

The test is the same for the next values; noted with them: at 200 (μM).
As for `CC(C)(C)NC(=O)c1ccccc1C(O)CSc1ccccc1NC(=O)C(C)(C)C` (stereo not shown) [Example 21], the “percent (inhibition)” value is on record as 10%.
On the same count and under the same terms, as for `CC(C)(C)NC(=O)c1ccccc1/C=C\C(O)Cc1ccccc1C(=O)NC(C)(C)C` (stereo not shown) [Example 27], the figure is 40%; as for `CC(C)(C)NC(=O)c1ccccc1/C=C/C(O)Cc1ccccc1C(=O)NC(C)(C)C` (stereo not shown) [Example 28], 40%; as for `CC(C)(C)NC(=O)c1ccccc1CC(O)CSc1ccc([N+](=O)[O-])cc1C(=O)NC(C)(C)C` (stereo not shown) [Example 43], 20%.
With `CC(C)(C)NC(=O)c1ccccc1CC(O)CSc1ccc(N)cc1C(=O)NC(C)(C)C` (stereo not shown) [Example 44], the “percent (inhibition)” value turned out to be 20%.
The same measure, in the same setting: the result for `CC(C)(C)NC(=O)c1ccccc1CCC(O)C(O)CCc1ccccc1C(=O)NC(C)(C)C` (stereo not shown) [Example 57] reads 93%; that for `CC(=O)N1CCc2ccc(CC(O)CCc3ccc4ccccc4c3C(=O)NC(C)(C)C)c(C(=O)N(C)C(C)(C)C)c2C1` (stereo not shown) [Example 63], 40%.
